Reference: patent US8106055B2, “Substituted amide compounds” (Gruenenthal GmbH, priority 2007, dated 2012)

Experiments:
[1] = target: T1, human bradykinin 1 receptor (B1R) (Homo sapiens, UniProt P46663); assay: Functional investigation on the human bradykinin 1 receptor (B1R), Ca2+ FLIPR assay in CHO K1 hB1R cells; format: cell-based; conditions: B1R antagonism human; test substance 10 μM; Ca2+ FLIPR, CHO K1 hB1R cells
T1 construct: expressed in transfected cells; host or cells: CHO K1 cells
T1 sequence (P46663 1-353): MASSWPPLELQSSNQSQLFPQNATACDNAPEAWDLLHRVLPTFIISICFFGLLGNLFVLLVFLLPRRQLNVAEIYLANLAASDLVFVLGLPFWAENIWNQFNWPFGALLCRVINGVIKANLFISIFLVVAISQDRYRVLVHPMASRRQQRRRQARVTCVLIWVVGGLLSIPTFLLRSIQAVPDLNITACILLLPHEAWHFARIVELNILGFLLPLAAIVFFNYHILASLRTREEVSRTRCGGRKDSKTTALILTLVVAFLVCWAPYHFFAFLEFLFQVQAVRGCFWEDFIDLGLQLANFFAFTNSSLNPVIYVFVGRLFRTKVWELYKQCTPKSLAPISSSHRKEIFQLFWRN
How it was run: (§1)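 Fluo-4 Ca2+ readout, peak fluorescence. Stable CHO K1 transfectants; compound pre-incubated 10-20 min, then EC80 agonist—Lys-Des-Arg9-BK for hB1R, Des-Arg9-BK for rB1R. % inhibition vs maximal inhibition; IC50 from multiple concentrations, duplicate/triplicate, ≥2 independent runs.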

[2] = target: T2, bradykinin 1 receptor (B1R) of the rat (Rattus norvegicus, UniProt P97583); assay: Functional investigation on the rat bradykinin 1 receptor (B1R), Ca2+ FLIPR assay in CHO K1 rB1R cells; format: cell-based; conditions: B1R antagonism rat; test substance 10 μM; Ca2+ FLIPR, CHO K1 rB1R cells
T2 construct: expressed in transfected cells; host or cells: CHO K1 cells
T2 sequence (P97583 1-337): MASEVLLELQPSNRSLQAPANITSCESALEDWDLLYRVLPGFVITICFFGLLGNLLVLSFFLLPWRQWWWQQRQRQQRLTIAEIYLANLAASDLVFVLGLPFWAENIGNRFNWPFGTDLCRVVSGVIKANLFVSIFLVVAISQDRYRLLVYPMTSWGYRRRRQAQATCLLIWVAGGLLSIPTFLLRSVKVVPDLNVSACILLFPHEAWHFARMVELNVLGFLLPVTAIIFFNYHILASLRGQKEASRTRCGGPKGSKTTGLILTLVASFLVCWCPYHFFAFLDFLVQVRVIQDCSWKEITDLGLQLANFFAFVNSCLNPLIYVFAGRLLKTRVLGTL
How it was run: as §1

SMILES	B1R Ant. h [10 μM] % Inhibition [1] [%]	B1R Ant. r [10 μM] % Inhibition [2] [%]
CN(C)C(c1cccc(F)c1)C1CCC(CCNC(=O)COCCN(Cc2ccccc2)S(=O)(=O)c2ccccc2)CC1 (stereo not drawn) [Example 278]	16	7
COc1cc(C)c(S(=O)(=O)N2CCCC(OCC(=O)NC3CCC(C(c4cccc(F)c4)N(C)C)CC3)C2)c(C)c1C (stereo not drawn) [Example 279]	23	7
COc1ccc(S(=O)(=O)N2CCCCC2COCC(=O)NCC2CCC(C(c3ccc(Cl)cc3)N(C)C)CC2)c(OC)c1 (stereo not drawn) [Example 280]	51	36
COc1ccc(S(=O)(=O)N2CCCCC2COCC(=O)NCCC2CCC(C(c3cccc(F)c3)N(C)C)CC2)c(OC)c1 (stereo not drawn) [Example 281]	0	18
CN(C)C(c1cccs1)C1CCC(NC(=O)COCCN(C)S(=O)(=O)c2ccc(OC(F)(F)F)cc2)CC1 (stereo not drawn) [Example 282]	−31	20
CN(C)C(c1cccc(F)c1)C1CCC(NC(=O)COC2CCN(S(=O)(=O)c3ccc(Cl)cc3Cl)C2)CC1 (stereo not drawn) [Example 283]	50	24
CN(C)C(c1ccc(Cl)cc1)C1CCC(CNC(=O)COCCN(C)S(=O)(=O)c2ccc(Cl)cc2)CC1 (stereo not drawn) [Example 284]	48	32
CN(C)C(c1ccc(F)cc1)C1CCC(CCNC(=O)COCCN(C)S(=O)(=O)c2c(Cl)cccc2Cl)CC1 (stereo not drawn) [Example 285]	97	75
COc1cc(C)c(S(=O)(=O)N2CCC(OCC(=O)NC3CCC(C(c4cccc(F)c4)N(C)C)CC3)CC2)c(C)c1C (stereo not drawn) [Example 286]	37	−2
COc1cc(C)c(S(=O)(=O)N2CCC(OCC(=O)NCC3CCC(C(c4cccc(F)c4)N(C)C)CC3)CC2)c(C)c1C (stereo not drawn) [Example 287]	1	−1
COc1ccc(S(=O)(=O)N2Cc3ccccc3CC2COCC(=O)NCC2CCC(C(c3ccc(F)cc3)N(C)C)CC2)cc1 (stereo not drawn) [Example 288]	62	20
CN(C)C(c1ccc(Cl)cc1)C1CCC(CCNC(=O)COCCN(C)S(=O)(=O)c2cccc(C(F)(F)F)c2)CC1 (stereo not drawn) [Example 289]	51	13
CN(C)C(c1ccc(F)cc1)C1CCC(NC(=O)COC2CCN(S(=O)(=O)c3ccc(Cl)cc3Cl)C2)CC1 (stereo not drawn) [Example 290]	37	37
CN(C)C(c1ccc(Cl)cc1)C1CCC(CCNC(=O)COCCN(C)S(=O)(=O)c2ccc(Cl)cc2Cl)CC1 (stereo not drawn) [Example 291]	105	36
COc1ccc(S(=O)(=O)N(C)CCOCC(=O)NCCC2CCC(C(c3cccc(F)c3)N(C)C)CC2)cc1 (stereo not drawn) [Example 292]	20	34
COc1ccc(S(=O)(=O)N(C)CCOCC(=O)NCCC2CCC(C(c3cccc(F)c3)N(C)C)CC2)cc1OC (stereo not drawn) [Example 293]	−7	2
CN(C)C(c1ccc(Cl)cc1)C1CCC(CNC(=O)COCC2CCCN(S(=O)(=O)c3ccccc3)C2)CC1 (stereo not drawn) [Example 294]	−3	32
CN(C)C(c1cccc(F)c1)C1CCC(CCNC(=O)COCC2CCCN(S(=O)(=O)c3ccccc3)C2)CC1 (stereo not drawn) [Example 295]	7	44
CN(C)C(c1cccc(F)c1)C1CCC(CNC(=O)COCCN(Cc2ccccc2)S(=O)(=O)c2ccccc2)CC1 (stereo not drawn) [Example 296]	−1	24
CN(C)C(c1cccc(F)c1)C1CCC(NC(=O)COCCN(C)S(=O)(=O)c2cccc(C(F)(F)F)c2)CC1 (stereo not drawn) [Example 297]	15	16
COc1cc(C)c(S(=O)(=O)N(C)CCOCC(=O)NCC2CCC(C(c3ccc(Cl)cc3)N(C)C)CC2)c(C)c1C (stereo not drawn) [Example 298]	103	14

SMILES	B1R Ant. h [10 μM] % Inhibition [1] [%]	B1R Ant. r [10 μM] % Inhibition [2] [%]
CN(C)C(c1ccc(Cl)cc1)C1CCC(CNC(=O)COC2CCN(S(=O)(=O)c3ccccc3)C2)CC1 (stereo not drawn) [Example 299]	−15	−13
CN(C)C(c1ccccc1)C1CCC(CNC(=O)COC2CCN(S(=O)(=O)c3ccccc3)CC2)CC1 (stereo not drawn) [Example 300]	−35	7
CN(C)C(c1ccc(Cl)cc1)C1CCC(CNC(=O)COC2CCCN(S(=O)(=O)c3ccccc3)C2)CC1 (stereo not drawn) [Example 301]	2	18
CN(C)C(c1cccc(F)c1)C1CCC(CNC(=O)COCCN(C)S(=O)(=O)c2cccc(C(F)(F)F)c2)CC1 (stereo not drawn) [Example 302]	38	0
CN(C)C(c1cccc(F)c1)C1CCC(CNC(=O)COCCN(C)S(=O)(=O)c2ccc(OC(F)(F)F)cc2)CC1 (stereo not drawn) [Example 303]	−19	29
Cc1ccc(S(=O)(=O)N2CCC(OCC(=O)NCC3CCC(C(c4ccc(Cl)cc4)N(C)C)CC3)C2)cc1 (stereo not drawn) [Example 304]	22	19
Cc1ccc(S(=O)(=O)N2CCC(OCC(=O)NCCC3CCC(C(c4ccc(Cl)cc4)N(C)C)CC3)C2)cc1 (stereo not drawn) [Example 305]	30	29
Cc1ccc(S(=O)(=O)N(C)CCOCC(=O)NCCC2CCC(C(c3ccc(Cl)cc3)N(C)C)CC2)cc1 (stereo not drawn) [Example 306]	38	14
COc1cc(C)c(S(=O)(=O)N2CCC(OCC(=O)NCCC3CCC(C(c4cccc(F)c4)N(C)C)CC3)C2)c(C)c1 (stereo not drawn) [Example 307]	105	94
CN(C)C(c1cccc(F)c1)C1CCC(CNC(=O)COCCN2CCN(S(=O)(=O)c3ccccc3)CC2)CC1 (stereo not drawn) [Example 308]	−1	17
CN(C)C(c1cccc(F)c1)C1CCC(CNC(=O)COC2CCCN(S(=O)(=O)c3ccccc3)C2)CC1 (stereo not drawn) [Example 309]	−4	−2
CCN(CCOCC(=O)NCC1CCC(C(c2ccc(Cl)cc2)N(C)C)CC1)S(=O)(=O)c1c(C)cc(OC)c(C)c1C (stereo not drawn) [Example 310]	89	33
COc1ccc(S(=O)(=O)N2CCCCC2COCC(=O)NCCC2CCC(C(c3ccc(Cl)cc3)N(C)C)CC2)cc1 (stereo not drawn) [Example 311]	69	64
COc1ccc(S(=O)(=O)N2CCCCC2CCOCC(=O)NCC2CCC(C(c3ccc(Cl)cc3)N(C)C)CC2)cc1 (stereo not drawn) [Example 312]	71	31
COc1ccc(S(=O)(=O)N2CCCC2COCC(=O)NCC2CCC(C(c3cccc(F)c3)N(C)C)CC2)cc1 (stereo not drawn) [Example 313]	34	31
CN(C)C(c1ccc(Cl)cc1)C1CCC(CNC(=O)COCCN(C)S(=O)(=O)c2cccc(C(F)(F)F)c2)CC1 (stereo not drawn) [Example 314]	74	13
COc1cc(C)c(S(=O)(=O)N(C)CCOCC(=O)NCCC2CCC(C(c3ccc(Cl)cc3)N(C)C)CC2)c(C)c1C (stereo not drawn) [Example 317]	103	18
CN(C)C(c1ccc(Cl)cc1)C1CCC(CNC(=O)COCCN(C)S(=O)(=O)c2c(Cl)cc(Cl)cc2Cl)CC1 (stereo not drawn) [Example 318]	104	3
COc1cc(C)c(S(=O)(=O)N2CCC(CCOCC(=O)NCC3CCC(C(c4cccc(F)c4)N(C)C)CC3)CC2)c(C)c1C (stereo not drawn) [Example 319]	0	11
COc1cc(C)c(S(=O)(=O)N2CCN(CCOCC(=O)NCCC3CCC(C(c4ccc(Cl)cc4)N(C)C)CC3)CC2)c(C)c1C (stereo not drawn) [Example 320]	73	−8
COc1ccc(S(=O)(=O)N2CCCCC2COCC(=O)NCC2CCC(C(c3ccc(Cl)cc3)N(C)C)CC2)cc1 (stereo not drawn) [Example 321]	94	77
